Literature values, collected in patent publication US9561187B1, “Sustained release metoprolol formulations” (CMAX Technologies, Inc., priority 2014, dated 2017).
Counter-ions that a name gives are not always drawn. Like-named read-outs stand apart in the source and are kept apart here.

Assays:
[1] = immediate-release tartrate vs extended-release succinate

Solubility (in dichloromethane and 2-propanol) | Solubility (in ethanol) | Solubility (in ethyl-acetate, acetone, diethylether and heptane) | Solubility (in methanol) | Solubility (in water) | Solubility (in acetone) | Solubility (in ether) | Solubility (in methylene chloride, in chloroform, and in alcohol) | More bioavailable than metoprolol succinate (more drug is absorbed) [1] | SMILES
slightly soluble | sparingly soluble | practically insoluble | soluble | freely soluble | – | – | – | – | COCCc1ccc(OCC(O)CNC(C)C)cc1 (racemic) [Metoprolol succinate, (±)1(isopropylamino)-3-[p-(2-methoxyethyl)phenoxy]-2-propanol succinate (2:1) (salt)]
– | – | – | – | very soluble | slightly soluble | insoluble | freely soluble | at least 30% | COCCc1ccc(OCC(O)CNC(C)C)cc1 (racemic) [Metoprolol tartrate, (±)-1-(Isopropylamino)-3-[p-(2-methoxyethyl)phenoxy]-2-propanol L-(+)-tartrate (2:1) salt]
